Assay results from patent US20210093551A1, “Methods Of Use Of Oral Care Compositions Comprising Hops” (The Procter & Gamble Company, priority 2019, published 2021).

System: plaque biofilm grown from fresh pooled human saliva
Assay: in vitro plaque glycolysis model (iPGRM): acid production and glycolysis inhibition after treatment of 3-day biofilm
Format: cell-based, plaque microorganisms from human saliva
Method: Acid production and acid inhibition were determined with the in vitro plaque glycolysis model (iPGRM). The purpose of this technique is to provide a simple and quick method for determining if compounds have an influence on the metabolic pathways that plaque microorganisms utilize to produce toxins that adversely affect gingival health.
The in vitro plaque glycolysis model (iPGRM) is a technique in which plaque is grown from human saliva and treated with various agents to determine anti-glycolytic activity of treatments. When bacteria convert sugar into energy with the help of enzymes, acids are formed. These acids demineralize and damage the dental enamel. The purpose of this technique is to provide a simple and quick method for determining if treatment compounds have an inhibitory effect on the metabolic pathways that plaque microorganisms utilize for the production of acids or toxins and/or inhibit their growth. […]
[…] The pH of the media solutions was then measured to determine the amount of glycolysis inhibition relative to a negative control.
On Day 1, new glass rods (5 mm×90 mm) were polished approximately 25 mm from the un-tapered end on a lathe with silicon carbide paper of 240, 320, 400, and 600 grit used sequentially. […] After polishing, rods were stored until ready to run test. […]

Structure (SMILES): [H]/N=C(\N/C(=N/[H])NCCCCCCNC(=N)NC(=N)Nc1ccc(Cl)cc1)Nc1ccc(Cl)cc1 [1% Chlorhexidine, Chlorhexidine]
- Mean Acid Inhibition (%) Mean (2 min treatment (1:5 in water), glycolysis inhibition relative to negative control (Crest Cavity Protection)): 75.12%
- Acid Production (ΔpH) Mean (2 min treatment with dentifrice slurry or diluted treatment in water (1:5), ΔpH versus blank vials): 0.4 ΔpH
